Experimental data from ChEMBL document CHEMBL1201862, “PubChem BioAssay data set” (2004).
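Five compound concentrations were applied to cells in 96-well plates for 48 hours; endpoints were derived by simple linear interpolation of the resulting dose-response curve. At the GI50, growth is halved.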 Activity calls are given as the source filed them. No stated cut-off is given here; in the data, active = GI50 up to about 1.1 µM and inactive = higher.

Experiments:
Assay in all cases: NCI anticancer screen, dose series, 48 h
[1] = tested on: SNB-19
[2] = tested on: HOP-92
[3] = tested on: KM12
[4] = tested on: TK-10
[5] = tested on: HOP-18
[6] = tested on: UACC-257
[7] = tested on: SF-268
[8] = tested on: OVCAR-5
[9] = tested on: SR
[10] = tested on: NCI-H522
[11] = tested on: SK-MEL-28
[12] = tested on: CCRF-CEM
[13] = tested on: SW-620
[14] = tested on: COLO 205
[15] = tested on: HOP-62
[16] = tested on: SN12C
[17] = tested on: HT-29
[18] = tested on: DLD-1
[19] = tested on: SK-MEL-2
[20] = tested on: LOX IMVI
[21] = tested on: K562
[22] = tested on: NCI-H460
[23] = tested on: NCI-H226
[24] = tested on: CAKI-1
[25] = tested on: NCI-H23
[26] = tested on: HL-60
[27] = tested on: M14
[28] = tested on: DMS-114
[29] = tested on: XF498
[30] = tested on: SNB-75
[31] = tested on: IGROV-1
[32] = tested on: 786-0
[33] = tested on: M19-MEL
[34] = tested on: UACC-62
[35] = tested on: DMS-273
[36] = tested on: RXF 631
[37] = tested on: UO-31
[38] = tested on: LXFL 529
[39] = tested on: HCT-116
[40] = tested on: HCT-15
[41] = tested on: SF-295
[42] = tested on: RXF 393
[43] = tested on: MOLT-4
[44] = tested on: EKVX
[45] = tested on: HCC 2998
[46] = tested on: OVCAR-8
[47] = tested on: A549
[48] = tested on: U-251
[49] = tested on: ACHN
[50] = tested on: OVCAR-4
[51] = tested on: Malme-3M
[52] = tested on: KM-20L2
[53] = tested on: SK-OV-3
[54] = tested on: OVCAR-3
[55] = tested on: SNB-78
[56] = tested on: SF-539
[57] = tested on: A498
[58] = tested on: RPMI-8226

C/C=C1/C(=Cc2[nH]c(C=c3[nH]/c(=C/C4=NC(=O)C(CC)=C4C)c(C)c3CCC(=O)O)c(CCC(=O)O)c2C)NC(=O)C1C (stereo not given)
GI50 [1]: > 50 µM (inactive)
GI50 [2]: 0.0173 µM (active)
GI50 [3]: 10.8 µM (inactive)
GI50 [4]: > 50 µM (inactive)
GI50 [5]: 30.2 µM (inactive)
GI50 [6]: 11 µM (inactive)
GI50 [7]: 7.89 µM (inactive)
GI50 [8]: 8.49 µM (inactive)
GI50 [9]: 4.37 µM (inactive)
GI50 [10]: 6.19 µM (inactive)
GI50 [11]: 47.6 µM (inactive)
GI50 [12]: 2.1 µM (inactive)
GI50 [13]: 2.96 µM (inactive)
GI50 [14]: 18.1 µM (inactive)
GI50 [15]: 2.33 µM (inactive)
GI50 [16]: 3.3 µM (inactive)
GI50 [17]: 5.11 µM (inactive)
GI50 [18]: 2.58 µM (inactive)
GI50 [19]: 9.08 µM (inactive)
GI50 [20]: 1.04 µM (active)
GI50 [21]: 2.21 µM (inactive)
GI50 [22]: 13 µM (inactive)
GI50 [23]: 2.59 µM (inactive)
GI50 [24]: 16.4 µM (inactive)
GI50 [25]: 21.5 µM (inactive)
GI50 [26]: 7.59 µM (inactive)
GI50 [27]: 1.87 µM (inactive)
GI50 [28]: 19.1 µM (inactive)
GI50 [29]: 8.63 µM (inactive)
GI50 [30]: 4.79 µM (inactive)
GI50 [31]: 3.38 µM (inactive)
GI50 [32]: 2.41 µM (inactive)
GI50 [33]: 10.9 µM (inactive)
GI50 [34]: 8 µM (inactive)
GI50 [35]: 5.45 µM (inactive)
GI50 [36]: 6.65 µM (inactive)
GI50 [37]: 8.24 µM (inactive)
GI50 [38]: 2.06 µM (inactive)
GI50 [39]: 2.13 µM (inactive)
GI50 [40]: 2.58 µM
GI50 [41]: 6.65 µM (inactive)
GI50 [42]: > 50 µM (inactive)
GI50 [43]: 1.95 µM (inactive)
GI50 [44]: 30.6 µM (inactive)
GI50 [45]: 11.4 µM (inactive)
GI50 [46]: 4.13 µM (inactive)
GI50 [47]: 10.5 µM (inactive)
GI50 [48]: 7.48 µM (inactive)
GI50 [49]: 13.7 µM (inactive)
GI50 [50]: 11.1 µM (inactive)
GI50 [51]: 13.6 µM (inactive)
GI50 [52]: 2.03 µM (inactive)
GI50 [53]: 42.1 µM (inactive)
GI50 [54]: 27.5 µM (inactive)
GI50 [55]: 11.5 µM (inactive)
GI50 [56]: 6.4 µM (inactive)

CC(=O)N[C@@H]1C(O)CN2C(=O)C(=O)O[C@H](C(O)CO)[C@@H]12 (stereo not given in full)
GI50 [1]: > 100 µM (inactive)
GI50 [2]: > 100 µM (inactive)
GI50 [3]: > 100 µM (inactive)
GI50 [4]: > 100 µM (inactive)
GI50 [5]: 74 µM (inactive)
GI50 [6]: > 100 µM (inactive)
GI50 [7]: > 100 µM (inactive)
GI50 [8]: > 100 µM (inactive)
GI50 [10]: > 100 µM (inactive)
GI50 [11]: > 100 µM (inactive)
GI50 [12]: > 100 µM (inactive)
GI50 [13]: > 100 µM (inactive)
GI50 [14]: > 100 µM (inactive)
GI50 [15]: > 100 µM (inactive)
GI50 [57]: > 100 µM (inactive)
GI50 [17]: > 100 µM (inactive)
GI50 [18]: > 100 µM (inactive)
GI50 [19]: > 100 µM (inactive)
GI50 [20]: > 100 µM (inactive)
GI50 [21]: > 100 µM (inactive)
GI50 [22]: > 100 µM (inactive)
GI50 [58]: > 100 µM (inactive)
GI50 [26]: > 100 µM (inactive)
GI50 [28]: > 100 µM (inactive)
GI50 [29]: > 100 µM (inactive)
GI50 [30]: > 100 µM (inactive)
GI50 [31]: > 100 µM (inactive)
GI50 [32]: > 100 µM (inactive)
GI50 [33]: > 100 µM (inactive)
GI50 [35]: > 100 µM (inactive)
GI50 [36]: > 100 µM (inactive)
GI50 [37]: > 100 µM (inactive)
GI50 [38]: > 100 µM (inactive)
GI50 [39]: > 100 µM (inactive)
GI50 [41]: > 100 µM (inactive)
GI50 [42]: > 100 µM (inactive)
GI50 [43]: > 100 µM (inactive)
GI50 [44]: > 100 µM (inactive)
GI50 [45]: > 100 µM (inactive)
GI50 [46]: > 100 µM (inactive)
GI50 [47]: > 100 µM (inactive)
GI50 [48]: > 100 µM (inactive)
GI50 [49]: > 100 µM (inactive)
GI50 [51]: > 100 µM (inactive)
GI50 [52]: > 100 µM (inactive)
GI50 [53]: > 100 µM (inactive)
GI50 [54]: > 100 µM (inactive)
GI50 [55]: > 100 µM (inactive)
GI50 [56]: > 100 µM (inactive)
